Experimental findings from patent US20150283259A1, “DRUG-PROTEIN CONJUGATES” (priority 2012, published 2015) are described below.

Assay [1] deals with HER2-negative MCF-7 cells. Kind of assay: In vitro cell viability assay (Cell-Titer Glo Luminescence), HER2-negative cells. The assay is classed as cell-based. As to conditions: 96 h incubation, 200-0.1 nM free AHX-DM1, 3 fold dilutions. The protocol:
(§1) The in vitro efficacy of the antibody and Fab conjugates prepared in Examples 3 and 4 respectively were determined by measuring the inhibitory effect on cell growth of HER-2 receptor over-expressing cancer cell lines.
(§2) Loss of tumour cell viability following treatment with cytotoxic drugs or ADCs in vitro can be measured by growing cell lines in the presence of increasing concentrations of drugs or ADCs and quantifying the loss of proliferation or metabolic activity using Cell-Titer Glo® Luminescence reagent (Promega Corp. Technical Bullettin TB288; Lewis Phillips G. D, Cancer Res 2008; 68:9280-9290). […]
(§3) HER2-positive SK-BR-3 and HER2-negative MCF-7 cells were trypsinised with 3 mL Trypsin EDTA for 5-15 min. […] Cells were counted using a Neubauer haemocytometer and adjusted to a cell density of 3×10^4/mL for MCF-7 and 5×10^4/mL for SK-BR-3 respectively. […]
(§4) The cell viability assay was carried out using the Cell-Titer Glo® Luminescence reagent, as described by the manufacturer's instructions, (Promega Corp. Technical Bulletin TB288; Lewis Phillips G. D, Cancer Res 2008; 68:9280-9290). […]
(§5) Luminescence was recorded using a plate reader (e.g. MD SpectramaxM3 plate reader), and data subsequently analysed using a four parameter non-linear regression model.
(§6) Viability is expressed as % of untreated cells. […]

The test system of assay [2] is HER2-positive SK-BR-3 cells. Kind of assay: In vitro cell viability assay (Cell-Titer Glo Luminescence), HER2-positive cells. The assay is classed as cell-based. The note with it: 96 h incubation, 40-0.018 nM, 2-fold dilutions, viability as % of untreated cells. The protocol: as §1, §2, §3, §4, §5, §6

In general, IC50 refers to the concentration that inhibits the measured activity by half. The low end stands for higher potency, the high end for lower potency. As for `COc1cc2cc(c1Cl)N(C)C(=O)C[C@H](OC(=O)[C@H](C)N(C)C(=O)CCCCCN)[C@]1(C)O[C@H]1[C@H](C)[C@@H]1C[C@@](O)(NC(=O)O1)[C@H](OC)/C=C/C=C(\C)C2` [AHX-DM1], the IC50 was determined as 36.3 nM in assay [1] and 3.4 nM in assay [2].
